The molecules below were run on EV71 virus strain Shenzhen/120F1/09 (assay: EV71 in-vitro cytopathic effect (CPE) test). Conditions: Enterovirus A, 72 h; RD cells, EV71 100 TCID50, 3 days, CCK8 readout; read-out: EC50 by EC71 CPE test, EV71.
Format: cell-based, RD cells of human rhabdomyoma
Procedure: Test of EV71 In-Vitro Cytopathic Effect (CPE) To test the in-vitro antiviral activity and cytotoxicity of a compound to HFMD virus EV71 by means of cytopathic effect (CPE) test. […] Cell line: RD cells of human rhabdomyoma • 3. Cell culture media: DMEM medium added with 10% serum, Penicillin/Streptomycin and L-[…]×) • 4. […] Cell inoculation: digest off the RD cells from the attached state, then dilute them with culture medium to a density of 80000/ml and inoculate 100 μl into the micro wells the 96-well plate. • 2. Dilution of compound: • Step 1: prepare the dry powder of a compound to test into a 10 mM solution in DMSO. Then dilute the compound by three times to eight concentration points. Dilute the reference compounds with the same method. • Step 2: further dilute the diluted solution of the compound in DMSO with cell culture medium. Add 10 μl DMSO solution for each well into 240 μl culture medium. • 3. Add the diluted compound solution by 50 μl each well into the 96-well plate inoculated with cells (double holes, final concentration of DMSO is 1%). • 4. Dilution of virus: dilute EV71 virus solution by 10000 times to a concentration of 100 TCID50/50 μl/. Add the diluted virus solution by 50 μl each well into the 96-well plate. Prepare another 96-well plate to replace the virus with culture medium and similarly inoculate the cells. Add the compound to test the toxicity of compound on cells. • 5. Cultivate the 96-well plate 3 days at the conditions of 37° C. and 5% CO2. • 6. EC50 and CC50 tests: add the cellular activity test reagent CCK8 into the micro-wells by 20 μl/well. Use ELIASA to read the absorbancy at the wavelength of 450 nm and 630 nm. • 7.
With `CCO/N=C/c1ccc(OCCCCCN2CCN(c3ccnc(N(C)C)c3)S2(=O)=O)cc1` [Embodiment 43, (E)-4-((5-(5-(2-(dimethylamino)-pyridin-4-yl)-1,1-dioxide-1,2,5-thiadiazolidine-2-yl)-pentyl)-oxy)-benzaldehyde-O-ethyl ketoxime] the EC50 was 100 to 500 nM.
With `CCO/N=C/c1ccc(OCCCCCN2CCN(c3ccc(C#N)cc3)S2(=O)=O)cc1` [Embodiment 44] the EC50 was 50 to 100 nM.
Work on `CCO/N=C1\CCc2cc(OCCCCCN3CCN(c4ccsc4)S3(=O)=O)ccc21` [Embodiment 46, (E)-2-(5-((1-(ethoxy-imino)-2,3-dihydro-1H-inden-5-yl)-oxy)-pentyl)-5-(thiophen-3-yl)-1,2,5-thiadiazolidine-1,1-dioxide] yielded an EC50 of 100 to 500 nM.
`CCO/N=C1\CCc2cc(OCCCCCN3CCN(c4ccc(N)nc4)S3(=O)=O)ccc21` [Embodiment 47] gave an EC50 of 500 to 1000 nM.
`CCO/N=C1\CCc2cc(OCCCCCN3CCN(c4ccnc(N)c4F)S3(=O)=O)ccc21` [Embodiment 48, (E)-2-(2-amino-3-fluoropyridin-4-yl)-5-(5-((1-(ethoxy-imino)-2,3-dihydro-1H-indene-5-yl)-oxy)-pentyl)-1,2,5-thiadiazolidine-1,1-dioxide] was tested, and the EC50 was 100 to 500 nM.
`CCO/N=C1\CCc2cc(OCCCCCN3CCN(c4cc(N)ncc4F)S3(=O)=O)ccc21` [Embodiment 49, (E)-2-(2-amino-5-fluoro-pyridin-4-yl)-5-(5-((1-(ethoxy-imino)-2,3-dihydro-1H-indene-5-yl)-oxy)-pentyl)-1,2,5-thiadiazolidine-1,1-dioxide] was tested, and the EC50 was 100 to 500 nM.
Molecule `CCO/N=C1\CCc2cc(OCCCCCN3CCN(c4ccnc(NC)c4)S3(=O)=O)ccc21` [Embodiment 50, (E)-2-(5-((1-(ethoxy-imino)-2,3-dihydro-1H-inden-5-yl)-oxy)-pentyl)-5-(2-(methylamino)-pyridin-4-yl)-1,2-thiadiazolidine-1,1-dioxide] has an EC50 of less than 50 nM.
With `CCO/N=C1\CCc2cc(OCCCCCN3CCN(c4ccnc(NCCO)c4)S3(=O)=O)ccc21` [Embodiment 51, (E)-2-(5-((1-(ethoxy-imino)-2,3-dihydro-1H-inden-5-yl)-oxy)-pentyl)-5-(2-((2-hydroxyethyl)-amino)-pyridin-4-yl)-1,2,5-thiadiazolidine-1,1-dioxide] the EC50 was less than 50 nM.
`Nc1cc(N2CCN(CCCCCOc3ccc(/C=N/OCC4CC4)cc3)S2(=O)=O)ccn1` [Embodiment 52] gave an EC50 of less than 50 nM.
`CC(C)O/N=C/c1ccc(OCCCCCN2CCN(c3ccnc(N)c3)S2(=O)=O)cc1` [Embodiment 53, (E)-4-((5-(5-(2-amino-pyridin-4-yl)-1,1-dioxide-1,2,5-thiadiazolidine-2-yl)-pentyl)-oxy)-benzaldehyde-O-isopropyl oxime] showed an EC50 of less than 50 nM.
Molecule `CCO/N=C(\CC)c1ccc(OCCCCCN2CCN(c3ccnc(N)c3)S2(=O)=O)cc1` [Embodiment 54, (E)-2-(2-amino-pyridin-4-yl)-5-(5-(4-(1-(ethoxyimino)-propyl)-phenoxy)-pentyl)-1,2,5-thiadiazolidine-1,1-dioxide] has an EC50 of 500 to 1000 nM.
`CCO/N=C/c1ccc(OCCOCCN2CCN(c3ccnc(N)c3)S2(=O)=O)cc1` [Embodiment 55] was tested, and the EC50 was 100 to 500 nM.
Molecule `CCO/N=C/c1ccc(OCCCCCN2CCN(c3ccnc(N)c3)S2(=O)=O)cn1` [Embodiment 56, (E)-5-((5-(5-(2-amino-pyridin-4-yl)-1,1-dioxide-1,2,5-thiadiazolidine-2-yl)-pentyl)-oxy)-picolinaldehyde-O-ethyl ketoxime] has an EC50 of 50 to 100 nM.
`CC(C)O/N=C1\CCc2cc(OCCCCCN3CCN(c4ccnc(N)c4)S3(=O)=O)ccc21` [Embodiment 58] showed an EC50 of less than 50 nM.
`CCO/N=C1\CCc2cc(OCCCCCN3CCN(c4ccnc(N)c4)S3(=O)=O)cc(F)c21` [Embodiment 59] showed an EC50 of less than 50 nM.
In the case of `CC(C)n1nnc(-c2ccc(OCCCCCN3CCN(c4ccnc(N)c4)S3(=O)=O)cc2)n1` [Embodiment 60], the EC50 is reported as less than 50 nM.
`Cn1nnc(-c2ccc(OCCCCCN3CCN(c4ccnc(N)c4)S3(=O)=O)cc2)n1` [Embodiment 61, 2-(2-amino-pyridin-4-yl)-5-(5-(4-(2-methyl-2H-tetrazol-5-yl)-phenoxy)-pentyl)-1,2,5-thiadiazolidine-1,1-dioxide] was tested, and the EC50 was less than 50 nM.
Molecule `CCc1noc2cc(OCCCCCN3CCN(c4ccnc(N)c4)S3(=O)=O)ccc12` [Embodiment 62, 2-(2-amino-pyridin-4-yl)-5-(5-((3-ethyl-benzo[d]isoxazol-6-yl)-oxy)-pentyl)-1,2,5-thiadiazolidine-1,1-dioxide] has an EC50 of 100 to 500 nM.
With `CCc1nnc(-c2ccc(OCCCCCN3CCN(c4ccnc(N)c4)S3(=O)=O)cc2)o1` [Embodiment 63, 4-(5-(5-(4-(5-ethyl-1,3,4-oxadiazol-2-yl)-phenoxy)-pentyl)-1,1-dioxo-1,2,5-thiadiazolidine-2-yl)-pyridin-2-amine] the EC50 was 100 to 500 nM.
Molecule `CCn1ncc(-c2ccc(OCCCCCN3CCN(c4ccnc(N)c4)S3(=O)=O)cc2)n1` [Embodiment 64, 2-(2-amino-pyridin-4-yl)-5-(5-(4-(2-ethyl-2H-1,2,3-triazol-4-yl)-phenoxy)-pentyl)-1,2,5-thiadiazolidine-1,1-dioxide] has an EC50 of less than 50 nM.
For `CCO/N=C1\CCCc2cc(OCCCCCN3CCN(c4ccnc(N)c4)S3(=O)=O)ccc21` [Embodiment 65], the EC50 was 100 to 500 nM.
`CCCc1nc2ccc(OCCCCCN3CCN(c4ccnc(N)c4)S3(=O)=O)cc2o1` [Embodiment 66, 2-(2-amino-pyridin-4-yl)-5-(5-((2-propyl-benzo[d]oxazole-6-yl)-oxy)-pentyl)-1,2,5-thiadiazolidine-1,1-dioxide] showed an EC50 of 50 to 100 nM.
`CCc1cc(-c2ccc(OCCCCCN3CCN(c4ccnc(N)c4)S3(=O)=O)cc2)no1` [Embodiment 67, 2-(2-amino-pyridin-4-yl)-5-(5-(4-(5-ethylisoxazole-3-yl)-phenoxy)-pentyl)-1,2,5-thiadiazolidine-1,1-dioxide] showed an EC50 of less than 50 nM.
`Nc1cc(N2CCN(CCCCCOc3ccc(-c4noc(C(F)(F)F)n4)cc3)S2(=O)=O)ccn1` [Embodiment 68, 2-(2-amino-pyridin-4-yl)-5-(5-(4-(5 (trifluoromethyl)-1,2,4-oxadiazol-3-yl)-phenoxy)-pentyl)-1,2,5-thiadiazolidine-1,1-dioxide] was tested, and the EC50 was 500 to 1000 nM.
With `Cc1nc(-c2ccc(OCCCCCN3CCN(c4ccnc(N)c4)S3(=O)=O)cc2)no1` [Embodiment 69] the EC50 was less than 50 nM.
`CCO/N=C1\CCc2cc(OCCCCCN3CCN(c4ccnnc4)S3(=O)=O)ccc21` [Embodiment 70] was tested, and the EC50 was 100 to 500 nM.
With `CCOc1noc2cc(OCCC(O)CCN3CCN(c4ccncc4)S3(=O)=O)ccc12` (centres unmarked) [Embodiment 71, 2-(5-((3-ethoxy-benzo[d]isoxazole-6-yl)-oxy)-3-hydroxy-pentyl)-5-(pyridin-4-yl)-1,2,5-thiadiazolidine-1,1-dioxide] the EC50 was 100 to 500 nM.
`CCOc1noc2cc(OCCC(F)CCN3CCN(c4ccncc4)S3(=O)=O)ccc12` (centres unmarked) [Embodiment 72, 2-(5-((3-ethoxy-benzo[d]isoxazole-6-yl)-oxy)-3-fluoro-pentyl)-5-(pyridin-4-yl)-1,2,5-thiadiazolidine-1,1-dioxide] showed an EC50 of 50 to 100 nM.
`CCn1nnc(-c2ccc(OCCC3(CCN4CCN(c5ccnc(N)c5)S4(=O)=O)CC3)cc2)n1` [Embodiment 73, 2-(2-amino-pyridin-4-yl)-5-(2-(1-(2-(4-(2-ethyl-2H-tetrazol-5-yl)-phenoxy)-ethyl)-cyclic propyl)-ethyl)-1,2,5-thiadiazolidine-1,1-dioxide] gave an EC50 of less than 50 nM.
